Results on 16 compounds are retold here after PubChem BioAssay (NCI).

The structures appear in SMILES notation.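 Growth conditions: 96-well plates. Treatment: test compound, 48 hours, 5 concentrations. Analysis: linear interpolation between bracketing concentrations; unreached endpoints set to highest concentration. The concentration for 50% growth inhibition is given as GI50. At the TGI there is no net growth.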 Some results are limits rather than exact numbers.

Among the test systems are MDA-MB-468 breast; 786-0 renal; LOX IMVI melanoma; A498 renal; U251 CNS; BT-549 breast; IGROV1 ovarian; HS 578T breast; SK-MEL-28 melanoma; KM12 colon; NCI-H23 lung; HCT-116 colon; UACC-62 melanoma; SK-MEL-5 melanoma; DU-145 prostate; HOP-62 NSCLC; HOP-92 NSCLC; SR leukemia; OVCAR-4 ovarian; A549 NSCLC; SN12C renal; OVCAR-5 ovarian; HCT-15 colon; NCI-H522 lung; ACHN renal; SF-539 CNS; SK-OV-3 ovarian; SNB-19 CNS; MALME-3M melanoma; NCI-H460 lung; HCC-2998 colon; UACC-257 melanoma; CCRF-CEM leukemia; RXF 393 renal; EKVX NSCLC; MCF7 breast; T-47D breast; RPMI-8226 leukemia; COLO 205 colon; SNB-75 CNS; MOLT-4 leukemia; HL-60(TB) leukemia; MDA-MB-231 breast; NCI-H226 lung; K-562 leukemia; OVCAR-3 ovarian; SF-295 CNS; UO-31 renal; OVCAR-8 ovarian; MDA-MB-435; SW-620 colon; M14 melanoma; CAKI-1 renal; TK-10 renal; PC-3 prostate; HT29 colon; SF-268 CNS; SK-MEL-2 melanoma.

What all share (experiment): inhibition of tumour cell growth, NCI panel, 48 h

Take `Nc1nn2cc(F)cnc2c1C(=O)Nc1cncc(F)c1N1CCC(C(=O)N2CCN(C3COC3)CC2)CC1`: in the experiment on MDA-MB-468 breast, the GI50 is 0.165 µM and the TGI came out at 0.682 µM.

As for `CC1(C)N=C(N)N=C(N)N1c1ccc(CCCCc2ccc(Cl)cc2S(=O)(=O)F)c(Cl)c1`, in the experiment with MDA-MB-468 breast, the GI50 is 0.569 µM and the TGI was 5.87 µM.

For the compound `COc1cc(NC(=O)c2cc(-c3ccc(F)cc3F)ccc2O)cc(OC)c1OC`, the GI50 was 19.4 µM with 786-0 renal; 13 µM in the experiment on LOX IMVI melanoma; 12.1 µM with A498 renal; 11 µM with U251 CNS; 5.29 µM in the experiment with BT-549 breast; 10.4 µM in the experiment on IGROV1 ovarian. The GI50 in the experiment on HS 578T breast is 5.2 µM; in the experiment on SK-MEL-28 melanoma it was 8.98 µM; in the experiment on KM12 colon, 10.2 µM; in the experiment with MDA-MB-468 breast, 3.98 µM; with NCI-H23 lung it was 4.75 µM; with HCT-116 colon, 13.7 µM. Also, the GI50 was 3.52 µM with UACC-62 melanoma; 3.16 µM in the experiment on SK-MEL-5 melanoma; 13.9 µM with DU-145 prostate; 13.4 µM with HOP-62 NSCLC; 3.49 µM in the experiment with HOP-92 NSCLC; 4.2 µM with SR leukemia. The GI50 was 4.45 µM with OVCAR-4 ovarian; 12.7 µM with A549 NSCLC; 6.12 µM with SN12C renal; 19.3 µM in the experiment on OVCAR-5 ovarian; 5.63 µM with HCT-15 colon; 3.19 µM in the experiment on NCI-H522 lung. Moreover, the GI50 was 16.2 µM in the experiment on ACHN renal; 12.4 µM with SF-539 CNS; 8.43 µM in the experiment with SK-OV-3 ovarian; 6.63 µM with SNB-19 CNS; 11.4 µM in the experiment with MALME-3M melanoma; 6.51 µM in the experiment with NCI-H460 lung. The GI50 with HCC-2998 colon was 11.9 µM; in the experiment on UACC-257 melanoma, 10.2 µM; in the experiment on CCRF-CEM leukemia, 6.23 µM; in the experiment with RXF 393 renal, 2.86 µM; with EKVX NSCLC, 12.3 µM; in the experiment with MCF7 breast it was 9.64 µM. Further, the GI50 in the experiment with T-47D breast is 2.73 µM; with RPMI-8226 leukemia it was 3.4 µM; with COLO 205 colon, 18.2 µM; with SNB-75 CNS it was 6.57 µM; with MOLT-4 leukemia, 5.9 µM; with HL-60(TB) leukemia, 6.09 µM. Further, the GI50 in the experiment on MDA-MB-231 breast was 18.8 µM; with NCI-H226 lung, 6.92 µM; in the experiment with K-562 leukemia, 5.1 µM; in the experiment with OVCAR-3 ovarian, 5.49 µM; in the experiment on SF-295 CNS it was 15.6 µM; in the experiment with UO-31 renal it was 5.24 µM. Besides, the GI50 in the experiment with OVCAR-8 ovarian was 13 µM; in the experiment on MDA-MB-435 it was 6.27 µM; in the experiment on SW-620 colon, 14.2 µM; in the experiment with M14 melanoma, 15.3 µM; with CAKI-1 renal it was 7.67 µM; in the experiment on TK-10 renal, 12 µM. The GI50 in the experiment with PC-3 prostate was 12.5 µM; in the experiment on HT29 colon, 17.9 µM; in the experiment on SF-268 CNS, 6.03 µM; in the experiment on SK-MEL-2 melanoma, 3.01 µM. Moreover, the TGI is 46.6 µM with 786-0 renal; 27.3 µM in the experiment on LOX IMVI melanoma; 25.8 µM in the experiment with A498 renal; 27.1 µM in the experiment on U251 CNS; 22.6 µM with BT-549 breast; 30.9 µM with IGROV1 ovarian. Moreover, the TGI with HS 578T breast was determined as 26.9 µM; in the experiment with SK-MEL-28 melanoma it was 22.3 µM; in the experiment with KM12 colon it was 23.3 µM; with MDA-MB-468 breast it was 17 µM; in the experiment on NCI-H23 lung, 18.9 µM; with HCT-116 colon, 32.2 µM. The TGI was determined as 13.4 µM with UACC-62 melanoma; 10.6 µM in the experiment on SK-MEL-5 melanoma; 39.4 µM in the experiment with DU-145 prostate; 33.2 µM in the experiment with HOP-62 NSCLC; 15.9 µM in the experiment on HOP-92 NSCLC; 40.5 µM with SR leukemia. In addition, the TGI in the experiment on OVCAR-4 ovarian was 31.4 µM; in the experiment with A549 NSCLC, 35.1 µM; with SN12C renal, 22.1 µM; in the experiment on OVCAR-5 ovarian, 43.4 µM; in the experiment with HCT-15 colon it was 24.9 µM; in the experiment on NCI-H522 lung it was 13.7 µM. Also, the TGI in the experiment on ACHN renal amounted to 66.3 µM; in the experiment with SF-539 CNS, 26.5 µM; in the experiment with SK-OV-3 ovarian, 23.9 µM; in the experiment on SNB-19 CNS, 29.5 µM; in the experiment on MALME-3M melanoma it was 25.9 µM; in the experiment on NCI-H460 lung it was 20.2 µM. The TGI in the experiment on HCC-2998 colon was found to be 25.4 µM; with UACC-257 melanoma, 22.4 µM; in the experiment with CCRF-CEM leukemia, 29.7 µM; with RXF 393 renal it was 16.8 µM; with EKVX NSCLC it was 48.3 µM; in the experiment on MCF7 breast it was 43.1 µM. The TGI in the experiment on T-47D breast is 9.31 µM; with RPMI-8226 leukemia, 45.9 µM; in the experiment with COLO 205 colon, 34.4 µM; in the experiment with SNB-75 CNS, 23.8 µM; in the experiment on MOLT-4 leukemia, 36.4 µM; in the experiment on HL-60(TB) leukemia, greater than 100 µM. For the same compound, the TGI with MDA-MB-231 breast was 51.2 µM; in the experiment on NCI-H226 lung it was 30 µM; in the experiment on K-562 leukemia, greater than 100 µM; in the experiment on OVCAR-3 ovarian it was 32.4 µM; with SF-295 CNS it was 32.6 µM; in the experiment with UO-31 renal, 23.5 µM. The TGI with OVCAR-8 ovarian was greater than 100 µM; with MDA-MB-435, 19.4 µM; with SW-620 colon it was 29 µM; in the experiment with M14 melanoma, 31.8 µM; in the experiment on CAKI-1 renal, 38.8 µM; in the experiment with TK-10 renal, 45.4 µM. Further, the TGI is 61.5 µM with PC-3 prostate, 33.6 µM in the experiment with HT29 colon, 28.3 µM in the experiment with SF-268 CNS and 13.9 µM in the experiment on SK-MEL-2 melanoma.

Turning to `O=C(Nc1ccc(Nc2ccncc2)cc1)c1ccc([N+](=O)[O-])cc1`, in the experiment with MDA-MB-468 breast, the GI50 was 1.75 µM and the TGI worked out at 5.2 µM.

For the compound `Cc1cc(C)c2c(n1)sc1c(Nc3ccc(Cl)cc3)ncnc12`, in the experiment with MDA-MB-468 breast, the GI50 is 0.0218 µM and the TGI came to 27 µM.

Regarding `COc1ccc(Sc2[nH]c(C(C)=O)c3ccccc23)cc1`, in the experiment with MDA-MB-468 breast, the GI50 is 3.89 µM and the TGI worked out at 41.4 µM.

Regarding `CC1(C)[C@@H](O)CC[C@]2(C)[C@H]3CC[C@@H]4[C@H]5[C@H](C(=O)/C=C\c6ccccn6)CC[C@]5(O)CC[C@@]4(C)[C@]3(C)CC[C@@H]12`, in the experiment with MDA-MB-468 breast, the GI50 is 1.4 µM and the TGI was 3.96 µM.

On to `COc1cc(OCc2cccc(-c3ccc(C(O)c4nccs4)cc3)c2C)cc(OC)c1C=O` (stereo unspecified), for which, in the experiment on MDA-MB-468 breast, the GI50 is 0.267 µM and the TGI stood at 2.51 µM.

Consider `C[N+](C)(C)CC1CCCc2ccccc2C1=O` (stereo unspecified), for which, in the experiment with MDA-MB-468 breast, the GI50 was 1.91 µM and the TGI amounted to 3.76 µM.

Take `c1ccc(-c2nnc(-c3ccccn3)s2)nc1`: in the experiment with MDA-MB-468 breast, the GI50 is 9.76 µM and the TGI was greater than 100 µM.

In the case of `CCN1CCN(C(=O)[C@@]2(C)CC[C@]3(C)CC[C@]4(C)C(=CC(=O)[C@@H]5[C@@]6(C)CC[C@H](OC7C[C@@H](O)[C@@H](O)C(C)O7)C(C)(C)[C@@H]6CC[C@]54C)[C@@H]3C2)CC1` (stereo partly specified), in the experiment with MDA-MB-468 breast, the GI50 is 1.49 µM and the TGI is 6.17 µM.

As to `Cc1cc(Cl)cc(OCCn2cc(F)cn2)c1-c1nc(N)nc2c1CN(C(=O)NCC(C)(F)F)C2`, in the experiment with MDA-MB-468 breast, the GI50 was 0.0361 µM and the TGI turned out to be 3.13 µM.

For `O=C(Nc1ccc(Br)cc1F)c1cc(F)ccc1O`, in the experiment on MDA-MB-468 breast, the GI50 was 1.13 µM and the TGI was determined as 4.92 µM.

For `CC/C=C\C[C@H](O)C/C=C1/C(=O)C(Cl)=C[C@@H]1C/C=C\CCCC(=O)OC`, in the experiment on MDA-MB-468 breast, the GI50 is 0.554 µM and the TGI is 3.06 µM.

Consider `COc1cccc(F)c1C(=O)c1cnc(NC2CCN(S(C)(=O)=O)CC2)nc1N`, for which, in the experiment on MDA-MB-468 breast, the GI50 is 3.75 µM and the TGI is 9.91 µM.

Regarding `Cn1cc(C2=C(c3ccc(N)cc3)C(=O)NC2=O)c2ccccc21`, in the experiment with MDA-MB-468 breast, the GI50 is 7.84 µM and the TGI is greater than 25 µM.
